In assay [1] the test system is murine bone marrow-derived macrophages. Description: area under cytotoxicity dose-response curve (AUC (% cytotoxicity x dose, relative)); higher = more cytotoxic. Conditions: duration: 6 days; dose range: 0.13-80 uM, 8 points. An outline of the steps: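 An 8-point, 2.5-fold dilution series (final 80–0.13 μM) was applied for 6 days at 37 °C in 5% CO2 to primary murine bone marrow-derived macrophages plated in opaque 384-well plates. Promega's CellTiter-Glo luminescence assay measured viability, and percent cytotoxicity was normalised against vehicle and positive control wells. The area under the dose–response curve, worked out in GraphPad Prism version 10, is the reported cytotoxicity measure.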

The subject of assay [2] is Mycobacterium tuberculosis CDC1551 (intracellular, in murine BMDM). In words: area under intracellular growth-inhibition dose-response curve (AUC (% inhibition x dose, relative)); higher = more potent. Conditions: duration: 6 days; dose range: 0.13-80 uM, 8 points. An outline of the steps:
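Each value is an area under the growth-inhibition dose–response curve, calculated with GraphPad Prism. Infected primary murine bone marrow-derived macrophages, carrying luciferase-expressing M. tuberculosis CDC1551 at multiplicity of infection 1, were treated for 6 days with an 8-dose, 2.5-fold series (final 80–0.13 μM) in 384-well opaque plates. Readout was by Bright-Glo luciferin assay, normalised to a reference drug control and the lowest-concentration wells.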

Take `Cc1cccc(OCC(=O)NCc2ccccc2)c1`: in assay [1], the “area under cytotoxicity dose-response curve” value is less than 0. Besides, in assay [2], the “area under intracellular growth-inhibition dose-response curve” value stood at 210.
For `CN1CCN(c2c(F)cc3c(=O)c(C(=O)[O-])cn4c3c2OCN4C)CC1`, the “area under cytotoxicity dose-response curve” value in assay [1] stood at 18.2. Further, the “area under intracellular growth-inhibition dose-response curve” value in assay [2] amounted to 187.
Turning to `O=S1(=O)C=C(Sc2nc3ccccc3s2)c2ccccc21`, the “area under cytotoxicity dose-response curve” value in assay [1] turned out to be 179. Besides, the “area under intracellular growth-inhibition dose-response curve” value in assay [2] was less than 0.
Taken in the same sequence, the figures for `O=C(CSc1ccccc1)NNC(=O)c1ccncc1` were 18.7 and 219.
On to `O=C(COc1ccc(Cl)cc1)N1CCCC1`, for which, in assay [1], the “area under cytotoxicity dose-response curve” value is 64. Besides, the “area under intracellular growth-inhibition dose-response curve” value in assay [2] is 213.
Taken in the same sequence, the figures for `CN(C)S(=O)(=O)c1ccc(C(=O)OCC(=O)Nc2ccc3c(c2)OCO3)cc1` were 38.4 and 11.2.
Taken in the same sequence, the figures for `O=C(NC1CCCCC1)c1ccc2c(c1)OCO2` were 88.5 and 125.
Turning to `C[C@@H](CN1CCC[C@H]1CN1C(N)=NC[C@@H]1Cc1ccccc1)N1C[C@@H](Cc2ccccc2)N(CCCC2CCCC2)C1=N`, in assay [1], the “area under cytotoxicity dose-response curve” value stood at 22.1. Besides, the “area under intracellular growth-inhibition dose-response curve” value in assay [2] came out at 98.
Taken in the same sequence, the figures for `CCOc1ccc(OCCCC(=O)NNC(=O)c2ccncc2)cc1` were less than 0 and 272.
The corresponding values for `C/C(CC(=O)Nc1ccc(N(C)C)cc1)=N\NC(=O)c1ccncc1` are 20.2 and 219.
On to `O=C(N/N=C/c1ccccc1Cl)c1ccncc1`, for which, in assay [1], the “area under cytotoxicity dose-response curve” value was 69.2. The “area under intracellular growth-inhibition dose-response curve” value in assay [2] amounted to 234.
As for `O=C(COC(=O)c1ccccc1NCCO)NCC1CCCCC1`, in assay [1], the “area under cytotoxicity dose-response curve” value came to 58.4. Besides, in assay [2], the “area under intracellular growth-inhibition dose-response curve” value stood at 151.
On to `CCC[C@@H](CN1CCC[C@H]1CN1C(N)=NC[C@H]1CC(C)C)N1C[C@@H]([C@H](C)CC)N(CCc2ccc(Cl)c(Cl)c2)C1=N`, for which the “area under cytotoxicity dose-response curve” value in assay [1] is 13.4. The “area under intracellular growth-inhibition dose-response curve” value in assay [2] is 129.
Take `Cc1c(Cc2ccccc2)c(NCCCO)n2c(nc3ccccc32)c1C#N`: the “area under cytotoxicity dose-response curve” value in assay [1] was less than 0. Also, in assay [2], the “area under intracellular growth-inhibition dose-response curve” value worked out at 148.
For `O=C(NNC(=O)c1ccc(-c2ccc([N+](=O)[O-])cc2)o1)c1ccncc1`, the “area under cytotoxicity dose-response curve” value in assay [1] is 40.4. For the same compound, in assay [2], the “area under intracellular growth-inhibition dose-response curve” value stood at 264.
Consider `COc1ccc(NC(=O)C/C(C)=N/NC(=O)c2ccncc2)c([N+](=O)[O-])c1`, for which, in assay [1], the “area under cytotoxicity dose-response curve” value is 129. Besides, in assay [2], the “area under intracellular growth-inhibition dose-response curve” value turned out to be 169.
Turning to `CCC12CN3CCN(CC(C3)/C1=N/NC(=O)c1ccncc1)C2`, in assay [1], the “area under cytotoxicity dose-response curve” value came to 13.3. For the same compound, in assay [2], the “area under intracellular growth-inhibition dose-response curve” value was 206.
The corresponding values for `Cc1nnc(SCC2=C(C(=O)O)N3C(=O)C(NC(=O)COc4ccc(F)cc4)C3SC2)s1` (stereo not given) are 2.64 and 212.
With `Cc1ccc(C)c(NC(=O)CN2C(=O)NC(C)(c3ccc4c(c3)OCCO4)C2=O)c1` (stereo not given), the “area under cytotoxicity dose-response curve” value in assay [1] stood at 4.48. For the same compound, in assay [2], the “area under intracellular growth-inhibition dose-response curve” value worked out at 44.8.
With `O=C(NN=C1CCCCCC1)c1ccncc1`, the “area under cytotoxicity dose-response curve” value in assay [1] was determined as 11.3. The “area under intracellular growth-inhibition dose-response curve” value in assay [2] turned out to be 273.
For the compound `COc1ccc(Cn2c(SCc3ccccc3C)nc3cc(OC)c(OC)cc3c2=N)cc1`, the “area under cytotoxicity dose-response curve” value in assay [1] came out at 2.96. For the same compound, the “area under intracellular growth-inhibition dose-response curve” value in assay [2] stood at 172.
The corresponding values for `COc1ccc(/C=N/NC(=O)c2ccncc2)cc1CN1CCCc2ccccc21` are 19.4 and 201.
The corresponding values for `O=C(CCC1CCCCC1)NCc1ccccn1` are 3 and 222.
On to `NNC(=O)c1ccncc1`, for which the “area under cytotoxicity dose-response curve” value in assay [1] is less than 0. Besides, in assay [2], the “area under intracellular growth-inhibition dose-response curve” value turned out to be 272.
Turning to `COc1c(N2CCN(C(=S)Nc3ccccc3F)C(C)C2)c(F)cc2c(=O)c(C(=O)O)cn(C3CC3)c12` (stereo not given), in assay [1], the “area under cytotoxicity dose-response curve” value is less than 0. In assay [2], the “area under intracellular growth-inhibition dose-response curve” value was found to be 275.
Take `COc1cccc2c1C(=O)c1c(O)c3c(c(O)c1C2=O)C[C@](O)(C(C)=O)C[C@H]3O[C@@H]1C[C@@H](N)[C@@H](O)[C@@H](C)O1.Cl`: the “area under cytotoxicity dose-response curve” value in assay [1] came to 172. In addition, the “area under intracellular growth-inhibition dose-response curve” value in assay [2] was 44.8.
The corresponding values for `CCC[C@@H](CN1CCC[C@H]1CN1C(N)=NC[C@@H]1Cc1ccccc1)N1C[C@@H](Cc2ccccc2)N(CCCC2CCCC2)C1=N` are 52.7 and 200.
The corresponding values for `Cc1ccc2c(c1)sc(-c1ccc(N(C)C)cc1)[n+]2C.[I-]` are 125 and less than 0.
For the compound `O=C(NCc1cccs1)c1ccc(Cl)s1`, the “area under cytotoxicity dose-response curve” value in assay [1] is 2.8. Also, the “area under intracellular growth-inhibition dose-response curve” value in assay [2] amounted to 212.
As to `COc1cc(/C=N/NC(=O)c2ccncc2)ccc1O`, in assay [1], the “area under cytotoxicity dose-response curve” value is 11.1. Further, the “area under intracellular growth-inhibition dose-response curve” value in assay [2] is 217.
Taken in the same sequence, the figures for `CC(=O)Nc1ccc(-c2c(C)cc3oc(=O)cc(-c4ccccc4)c3c2C)cc1` were 113 and 221.
The corresponding values for `O=C(N/N=C/c1ccc2c(c1)OCCO2)c1ccncc1` are 66.5 and 124.
The corresponding values for `Cc1ccc(-c2nn(-c3ccccc3)cc2/C=N/NC(=O)c2ccncc2)o1` are 48.7 and 261.
For the compound `c1ccc(Cc2nnc(-c3ccccc3)o2)cc1`, the “area under cytotoxicity dose-response curve” value in assay [1] worked out at 39.3. Further, in assay [2], the “area under intracellular growth-inhibition dose-response curve” value was determined as 264.
As to `O=C(/C=C/c1cccs1)N1CCCCC1`, the “area under cytotoxicity dose-response curve” value in assay [1] is less than 0. In assay [2], the “area under intracellular growth-inhibition dose-response curve” value was found to be 243.
Turning to `COc1ccc(OCCCC(=O)NNC(=O)c2ccncc2)cc1`, the “area under cytotoxicity dose-response curve” value in assay [1] came out at 6.62. Also, the “area under intracellular growth-inhibition dose-response curve” value in assay [2] came to 227.
For `CCOC(=O)c1ccc(N2CN(CC)CNC2=S)cc1`, in assay [1], the “area under cytotoxicity dose-response curve” value was found to be 10.1. The “area under intracellular growth-inhibition dose-response curve” value in assay [2] came to 254.
Take `Cc1ccccc1OCC(=O)NC(=S)Nc1ccc(N2CCCC2)cc1`: the “area under cytotoxicity dose-response curve” value in assay [1] amounted to 105. Also, in assay [2], the “area under intracellular growth-inhibition dose-response curve” value stood at 182.
Taken in the same sequence, the figures for `CC(NC(=O)c1cc([N+](=O)[O-])cc([N+](=O)[O-])c1)C1CC2CCC1C2` (stereo not given) were 64.9 and 257.
The corresponding values for `Cc1ccnc2c1ccc1cccnc12` are 208 and 149.

The record behind these values is the supplement of paper PMC11997997.
